Measurements taken from US20160346283A1, “Various Compounds as Autophagy Stimulants” (Velgene 3 Limited, priority 2013, published 2016).

What was measured:
[1] = tested on: GFP-RFP-LC3 HeLa cell line; assay: GFP-RFP-LC3 HeLa autophagy reporter cell assay (fluorescence microscopy); assay type: cell-based, human; details: for number of red foci (autolysosomes): 10.0 μM, 6 hours, compared to negative control (DMSO)
Description: The GFP-RFP-LC3 HeLa cell line (Settembre et al, Science, 2011) was cultured in DMEM (Dulbecco's Modified Eagle's Medium, Sigma, D7777) containing 4500 mg/l glucose, 10% heat inactivated FCS (Merck), 40 μg/ml gentamycin (Hungaropharma) and 600 μg/ml G418 (Sigma, G8168). Drug candidates […]-0696, […]-7132 and […]-1567 were obtained from the ENAMINE molecule bank. 3×10^4 cells were plated onto 13 mm diameter poly-D-lysine coated coverslips in 24-well plates (Greiner) with 24 hours before the treatment. […] As controls, 0.1 and 1% DMSO, 200 nM rapamycin (autophagy inductor) and 100 nM bafilomycin A1 (an autophagy inhibitor) were used. For fluorescence microscopy, cells were fixed in 4% paraformaldehyde (Taab) and mounted in mowiol 4.88 (Polysciences) supplemented with bis-benzimide (Sigma) for nuclei staining. 5 epifluorescent pictures were taken in each condition by a BX51 microscope (Olympus) fitted with a FluoViewII camera and the AnalysisPro software (Olympus), using a 60×/1.4 oil Plan objective and the appropriate filter sets (DAPI: BP330-385/DM400/BA420; GFP: BP460-500/DM505/BP510-560; RFP: BP480-550/DM570/BA590). […] RFP: red fluorescence protein-autolysosome (mature autophagic compartment) GFP: green fluorescence protein Atg8: Autophagy-related protein 8-the most frequently used marker for autophagy Yellow: RFP and GFP (merged)-autophagosome (the primary autophagic structure)

[2] = tested on: Drosophila melanogaster transgenic for an mCherry:Atg8 reporter (fat body); assay: mCherry:Atg8 reporter in fat body of Drosophila L3 larvae; assay type: in vivo; details: L3 larva, 1.0 uM, 2 hours
Description: Flies with the genotype of hsFlp:pAct<CD2<Gal4, UAS-nlsGFP, r4:mCherry:Atg8a were used. Microscopic images were taken from the fat body of wandering larvae at the L3 stage. Note that in well-fed larvae at the same stage, no autophagic activity is visible. 2 hours before the test, 90-94 hours larvae were transferred onto yeast suspension (0.5 g yeast extract 2.5 ml water, homogenization and boiling). […] Larvae were cultured in this medium for 2 hours. Preparation of fat bodies was performed in PBS solution. For covering, 8:2 ratio of glycerine:PBS was used (supplemented with 10 mM Hoechst solution).
Imaging was taken with a Zeiss AxioImager Z1 fluorescence microscope, supplemented with Apotome semiconfocal setup, 400× magnification, the same exposition time.
Examining T544-1567 (inhibitor), hsFlp; pAct<CD2<Gal4, UAS-nlsGFP, r4:mCherry:Atg8a flies were crossed with animals of yw; (EP)EDTP^EY22967 genotype (the autophagy antagonist EDTP/Jumpy is clonally overexpressed in fat body).
Cells with overactivated EDTP/Jumpy are in green due to the presence of the GFP transgene. Blue colour (DAP staining) indicates the nuclei (DNA). Red dots (mCherry:Atg8) indicate autophagy structures (autophagosomes+autolysosomes). […]

mice (pancreas, liver) = assay: Autophagic activity in mouse organs by electron microscopy; assay type: in vivo; details: 50 uMol intraperitoneal, 2.5 hours
Description: 50 uMol of effective molecules were dissolved in 10% DMSO and were administered intraperitoneously. After 2.5 hours the animals were sacrificed and their organs removed. The organs were transferred to tissue cultivating solution.
The organs were prepared for electronmicroscopic studies by standard preparation techniques. The ultrathin slices were prepared using Reichert-Jung Ultracut-E type ultramicrotome. The slides were investigated by JEM Jeol 1011 electron microscope.

Structure (SMILES)	number of red foci (autolysosomes) [1]	red dots (mCherry:Atg8 autophagy structures) in fat body [2]	autophagic activity (autophagosomes and autolysosomes) in liver (mice (pancreas, liver))	autophagic activity (autophagosomes and autolysosomes) in pancreas (mice (pancreas, liver))	autophagy activity (autolysosome accumulation) ([1]; larger dose, 50 uM)	accumulation of autophagosomes (yellow foci), fusion with lysosomes blocked ([1]; 100 nM bafilomycin A1, 6 hours)
CC(Sc1nc2ccccc2c(=O)n1C1CCCC1)C(=O)N1CCc2ccccc21 (stereo not shown) [T558-0696]	increases the number of red foci (autolysosomes)	increased number of red dots	pronounced autophagic activity	pronounced autophagic activity		
O=C1C([N-]S(=O)(=O)c2ccc([N+](=O)[O-])cc2)=C([n+]2c[nH]c3ccccc32)C(=O)c2ccccc21 [T0501-7132]	induces the accumulation the autolysosomes				markedly elevated activity	
CO/C1=C\C(C)=C\[C@@H](C)[C@@H](O)[C@@H](C)C/C(C)=C/C=C/[C@H](OC)[C@@H]([C@@H](C)[C@@H](O)[C@H](C)[C@@]2(O)C[C@@H](O)[C@H](C)[C@@H](C(C)C)O2)OC1=O [Bafilomycin A1, reference compound]						yellow foci accumulate in large quantities
